Structures are written as SMILES. Where a SMILES comes first, the peptide text is derived from it. Bridges are numbered along the chain shown (N, C = ends). [ ]: non-standard residue; d: D form. The star is where a group is joined. X1 = O=C(O)CCCCCCCCCCCCCCCCC(=O)N[C@@H](CCC(=O)NCCOCCOCCOCCOCCOCCOCCOCCOCCOCCOCCOCCn1cc(C*)nn1)C(=O)O; Bip = N[C@@H](Cc1ccc(-c2ccccc2)cc1)C(=O)O; Phe(3-Me) = Cc1cccc(C[C@H](N)C(=O)O)c1; Cha = N[C@@H](CC1CCCCC1)C(=O)O; Carboxymethyl = O=C(O)C*; Nle = CCCC[C@H](N)C(=O)O; Orn = NCCC[C@H](N)C(=O)O; Dab = NCC[C@H](N)C(=O)O; Nva = CCC[C@H](N)C(=O)O; Abu = CC[C@H](N)C(=O)O; Dap = NC[C@H](N)C(=O)O

This assay deals with T1, human PD-1 (Jurkat-PD-1 cells; binding of PE-labeled human PD-L1-Ig) (Homo sapiens, UniProt Q15116).
T1 construct: expressed in transfected cells; host or cells: Jurkat (Jurkat-PD-1 / Jurkat-hPD-1)
T1 sequence (Q15116 25-288): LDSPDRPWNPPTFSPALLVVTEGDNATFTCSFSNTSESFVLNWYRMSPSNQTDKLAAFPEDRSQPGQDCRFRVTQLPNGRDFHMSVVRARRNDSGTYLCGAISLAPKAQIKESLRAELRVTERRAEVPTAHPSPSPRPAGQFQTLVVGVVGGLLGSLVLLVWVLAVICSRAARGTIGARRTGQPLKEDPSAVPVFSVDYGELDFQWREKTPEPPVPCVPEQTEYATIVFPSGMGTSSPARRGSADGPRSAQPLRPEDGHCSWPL
Put plainly: Jurkat-PD-1 Cell Binding High-Content Screening Assay. To be noted: Jurkat cell line over-expressing human PD-1; compound 2 h at 37° C., then PE-labeled PD-L1-Ig 20 nM final, 1 hour; read-out: Jurkat hPD1 PDL1 IC50. How it is done: The ability of the compounds of formula (I) to bind to PD-1 was investigated using a Jurkat-PD-1 Cell Binding High-Content Screening Assay.
Phycoerythrin (PE) was covalently linked to the Ig epitope tag of human PD-L1-Ig and fluorescently-labeled PD-L1-Ig was used for binding studies with a Jurkat cell line over-expressing human PD-1 (Jurkat-PD-1). Briefly, 8×10^3 Jurkat-hPD-1 cells were seeded into 384 well plates in 20 μl of DIVEM supplemented with 10% fetal calf serum. 100 nl of compound was added to cells followed by incubation at 37° C. for 2 h. Then, 5 μl of PE-labeled PD-L1-Ig (20 nM final), diluted in DiVEM supplemented with 10 fetal calf serum. After 1 hour incubation, cells were fixed with […] in dPBS containing 10 µg/mL Hoechst 33342 and then washed 3× in 100 μl dPB S. Data was collected and processed using a Cell Insight NXT High Content Imager and associated software.
As for `Cc1cccc(C[C@@H]2NC(=O)[C@H](CC(=O)O)NC(=O)[C@H](Cc3ccc(OCC(=O)O)cc3)NC(=O)[C@H](CCN)NC(=O)CSC[C@@H](C(=O)N[C@@H](CCN)C(N)=O)NC(=O)[C@H](Cc3ccc(OCc4cn(CCOCCOCCOCCOCCOCCOCCOCCOCCOCCOCCOCCNC(=O)CC[C@H](NC(=O)CCCCCCCCCCCCCCCCC(=O)O)C(=O)O)nn4)cc3)NC(=O)[C@H](C(C)C)NC(=O)[C@H](CC3CCCCC3)NC(=O)[C@H](CCN)NC(=O)[C@@H](CC(C)C)NC(=O)[C@H](CCCN)NC(=O)[C@H](Cc3ccc(OCC(=O)O)cc3)NC(=O)[C@H](Cc3ccc(-c4ccccc4)cc3)NC(=O)[C@H](Cc3ccc(OCC(=O)O)cc3)NC2=O)c1` [Compound 1012] ({CH2CO}-[Dab]Y(Carboxymethyl)D[Phe(3-Me)]Y(Carboxymethyl)[Bip]Y(Carboxymethyl)[Orn][dL][Dab][Cha]VY(X1)C[Dab]-NH2; thioether N-14), the IC50 was determined as 380 nM.

Take `Cc1cccc(C[C@@H]2NC(=O)[C@H](CC(=O)O)NC(=O)[C@H](Cc3ccc(OCC(=O)O)cc3)NC(=O)[C@H](CN)NC(=O)CSC[C@@H](C(=O)N[C@@H](CCN)C(N)=O)NC(=O)[C@H](Cc3ccc(OCc4cn(CCOCCOCCOCCOCCOCCOCCOCCOCCOCCOCCOCCNC(=O)CC[C@H](NC(=O)CCCCCCCCCCCCCCCCC(=O)O)C(=O)O)nn4)cc3)NC(=O)[C@H](C(C)C)NC(=O)[C@H](CC3CCCCC3)NC(=O)[C@H](CCN)NC(=O)[C@@H](CC(C)C)NC(=O)[C@H](CCCN)NC(=O)[C@H](Cc3ccc(OCC(=O)O)cc3)NC(=O)[C@H](Cc3ccc(-c4ccccc4)cc3)NC(=O)[C@H](Cc3ccc(OCC(=O)O)cc3)NC2=O)c1` [Compound 1013] ({CH2CO}-[Dap]Y(Carboxymethyl)D[Phe(3-Me)]Y(Carboxymethyl)[Bip]Y(Carboxymethyl)[Orn][dL][Dab][Cha]VY(X1)C[Dab]-NH2; thioether N-14): the concentration for half-maximal inhibition (IC50) came out at 240 nM.

Take `Cc1cccc(C[C@@H]2NC(=O)[C@H](CC(=O)O)NC(=O)[C@H](Cc3ccc(OCC(=O)O)cc3)NC(=O)[C@H](CCCNC(=N)N)NC(=O)CSC[C@@H](C(=O)N[C@@H](CCN)C(N)=O)NC(=O)[C@H](Cc3ccc(OCc4cn(CCOCCOCCOCCOCCOCCOCCOCCOCCOCCOCCOCCNC(=O)CC[C@H](NC(=O)CCCCCCCCCCCCCCCCC(=O)O)C(=O)O)nn4)cc3)NC(=O)[C@H](C(C)C)NC(=O)[C@H](CC3CCCCC3)NC(=O)[C@H](CCN)NC(=O)[C@@H](CC(C)C)NC(=O)[C@H](CCCN)NC(=O)[C@H](Cc3ccc(OCC(=O)O)cc3)NC(=O)[C@H](Cc3ccc(-c4ccccc4)cc3)NC(=O)[C@H](Cc3ccc(OCC(=O)O)cc3)NC2=O)c1` [Compound 1014] ({CH2CO}-RY(Carboxymethyl)D[Phe(3-Me)]Y(Carboxymethyl)[Bip]Y(Carboxymethyl)[Orn][dL][Dab][Cha]VY(X1)C[Dab]-NH2; thioether N-14): the 50% inhibitory concentration (IC50) stood at 73 nM.

Consider `Cc1cccc(C[C@@H]2NC(=O)[C@H](CC(=O)O)NC(=O)[C@H](Cc3ccc(OCC(=O)O)cc3)NC(=O)[C@H](Cc3c[nH]cn3)NC(=O)CSC[C@@H](C(=O)N[C@@H](CCN)C(N)=O)NC(=O)[C@H](Cc3ccc(OCc4cn(CCOCCOCCOCCOCCOCCOCCOCCOCCOCCOCCOCCNC(=O)CC[C@H](NC(=O)CCCCCCCCCCCCCCCCC(=O)O)C(=O)O)nn4)cc3)NC(=O)[C@H](C(C)C)NC(=O)[C@H](CC3CCCCC3)NC(=O)[C@H](CCN)NC(=O)[C@@H](CC(C)C)NC(=O)[C@H](CCCN)NC(=O)[C@H](Cc3ccc(OCC(=O)O)cc3)NC(=O)[C@H](Cc3ccc(-c4ccccc4)cc3)NC(=O)[C@H](Cc3ccc(OCC(=O)O)cc3)NC2=O)c1` [Compound 1015] ({CH2CO}-HY(Carboxymethyl)D[Phe(3-Me)]Y(Carboxymethyl)[Bip]Y(Carboxymethyl)[Orn][dL][Dab][Cha]VY(X1)C[Dab]-NH2; thioether N-14), for which the IC50 amounted to 100 nM.

Consider `CCCC[C@@H]1NC(=O)CSC[C@@H](C(=O)N[C@@H](CCN)C(N)=O)NC(=O)[C@H](CCC(=O)O)NC(=O)[C@H](C(C)C)NC(=O)[C@H](CC2CCCCC2)NC(=O)[C@H](CCN)NC(=O)[C@@H](CC(C)C)NC(=O)[C@H](CCCN)NC(=O)[C@H](Cc2ccc(OCC(=O)O)cc2)NC(=O)[C@H](Cc2ccc(-c3ccccc3)cc2)NC(=O)[C@H](Cc2ccc(OCc3cn(CCOCCOCCOCCOCCOCCOCCOCCOCCOCCOCCOCCNC(=O)CC[C@H](NC(=O)CCCCCCCCCCCCCCCCC(=O)O)C(=O)O)nn3)cc2)NC(=O)[C@H](Cc2cccc(C)c2)NC(=O)[C@H](CC(=O)O)NC(=O)[C@H](Cc2ccc(OCC(=O)O)cc2)NC1=O` [Compound 1016] ({CH2CO}-[Nle]Y(Carboxymethyl)D[Phe(3-Me)]Y(X1)[Bip]Y(Carboxymethyl)[Orn][dL][Dab][Cha]VEC[Dab]-NH2; thioether N-14), for which the IC50 is 100 nM.

On to `CC[C@@H]1NC(=O)CSC[C@@H](C(=O)N[C@@H](CCN)C(N)=O)NC(=O)[C@H](CCC(=O)O)NC(=O)[C@H](C(C)C)NC(=O)[C@H](CC2CCCCC2)NC(=O)[C@H](CCN)NC(=O)[C@@H](CC(C)C)NC(=O)[C@H](CCCN)NC(=O)[C@H](Cc2ccc(OCC(=O)O)cc2)NC(=O)[C@H](Cc2ccc(-c3ccccc3)cc2)NC(=O)[C@H](Cc2ccc(OCc3cn(CCOCCOCCOCCOCCOCCOCCOCCOCCOCCOCCOCCNC(=O)CC[C@H](NC(=O)CCCCCCCCCCCCCCCCC(=O)O)C(=O)O)nn3)cc2)NC(=O)[C@H](Cc2cccc(C)c2)NC(=O)[C@H](CC(=O)O)NC(=O)[C@H](Cc2ccc(OCC(=O)O)cc2)NC1=O` [Compound 1017] ({CH2CO}-[Abu]Y(Carboxymethyl)D[Phe(3-Me)]Y(X1)[Bip]Y(Carboxymethyl)[Orn][dL][Dab][Cha]VEC[Dab]-NH2; thioether N-14), for which the IC50 was 90 nM.

Regarding `CCC[C@@H]1NC(=O)CSC[C@@H](C(=O)N[C@@H](CCN)C(N)=O)NC(=O)[C@H](CCC(=O)O)NC(=O)[C@H](C(C)C)NC(=O)[C@H](CC2CCCCC2)NC(=O)[C@H](CCN)NC(=O)[C@@H](CC(C)C)NC(=O)[C@H](CCCN)NC(=O)[C@H](Cc2ccc(OCC(=O)O)cc2)NC(=O)[C@H](Cc2ccc(-c3ccccc3)cc2)NC(=O)[C@H](Cc2ccc(OCc3cn(CCOCCOCCOCCOCCOCCOCCOCCOCCOCCOCCOCCNC(=O)CC[C@H](NC(=O)CCCCCCCCCCCCCCCCC(=O)O)C(=O)O)nn3)cc2)NC(=O)[C@H](Cc2cccc(C)c2)NC(=O)[C@H](CC(=O)O)NC(=O)[C@H](Cc2ccc(OCC(=O)O)cc2)NC1=O` [Compound 1018] ({CH2CO}-[Nva]Y(Carboxymethyl)D[Phe(3-Me)]Y(X1)[Bip]Y(Carboxymethyl)[Orn][dL][Dab][Cha]VEC[Dab]-NH2; thioether N-14), the IC50 was 110 nM.

As for `Cc1cccc(C[C@@H]2NC(=O)[C@H](CC(=O)O)NC(=O)[C@H](Cc3ccc(OCC(=O)O)cc3)NC(=O)[C@H]([C@@H](C)O)NC(=O)CSC[C@@H](C(=O)N[C@@H](CCN)C(N)=O)NC(=O)[C@H](CCC(=O)O)NC(=O)[C@H](C(C)C)NC(=O)[C@H](CC3CCCCC3)NC(=O)[C@H](CCN)NC(=O)[C@@H](CC(C)C)NC(=O)[C@H](CCCN)NC(=O)[C@H](Cc3ccc(OCC(=O)O)cc3)NC(=O)[C@H](Cc3ccc(-c4ccccc4)cc3)NC(=O)[C@H](Cc3ccc(OCc4cn(CCOCCOCCOCCOCCOCCOCCOCCOCCOCCOCCOCCNC(=O)CC[C@H](NC(=O)CCCCCCCCCCCCCCCCC(=O)O)C(=O)O)nn4)cc3)NC2=O)c1` [Compound 1019] ({CH2CO}-TY(Carboxymethyl)D[Phe(3-Me)]Y(X1)[Bip]Y(Carboxymethyl)[Orn][dL][Dab][Cha]VEC[Dab]-NH2; thioether N-14), the IC50 was 140 nM.

The values above are taken from patent US20250250299A1, “MACROCYCLIC IMMUNOMODULATORS” (Bristol-Myers Squibb Company, priority 2022, published 2025).
